“Also recorded” adds a separate entry of the source.

Assay type in all cases: cell-based
Assay [1] deals with NRAS mutant human melanoma cell lines. Nature of the assay: 3D proliferation assay (CellTiter-Glo) with synergy analysis, NRAS mutant melanoma panel. The note with it: VS-6766 + pan-RAF inhibitor (e.g., belvarafenib, naporafenib, lifirafenib, tovorafenib); 7 days; 3 NRAS mutant melanoma cell lines; Bliss, Loewe, HSA, ZIP (FIGS. 7, 8). On the procedure:
(§1) As examples, BRAF V600E human melanoma, BRAF V600E human colorectal carcinoma (CRC), and NRAS mutant human melanoma cell lines were grown in 3D conditions. Briefly, 96-well plates were coated with 50 μL of Matrigel (100%) and incubated at 37° C. and 5% CO2 for 30 min in order for the Matrigel to solidify. Cells were seeded in 100 μL of 2% Matrigel containing medium. After an overnight incubation (17-22 hours), cells were treated with VS-6766+/−BRAF V600 inhibitor (e.g., vemurafenib, dabrafenib, encorafenib), VS-6766+/−pan-RAF inhibitor (e.g., belvarafenib, naporafenib, lifirafenib, tovorafenib), or MEK inhibitor (e.g., cobimetinib, trametinib, binimetinib)+/−BRAF (e.g., vemurafenib, dabrafenib, encorafenib) inhibitor for 7 days. VS-6766 and MEK inhibitors were used at 1:5 dilutions starting at 5 μM. BRAF V600 inhibitors and pan-RAF inhibitors were used at 1:3 dilutions starting at 5 μM. Cell viability was measured using the cell viability CellTiter-Glo assay.
(§2) Raw data and metadata files were processed with a custom R-script for single agent and combination activity. Bliss, Loewe, Highest Single Agent (HSA) and ZIP synergy analysis were performed to generate a composite synergy score. Summary graphics and reports were saved for visualization and further analysis.
In general terms: In ATP-based viability assays light output follows the ATP content of the culture.

The test system of assay [2] is BRAF V600E human colorectal carcinoma (CRC) cell lines. Nature of the assay: 3D proliferation assay (CellTiter-Glo) with synergy analysis, BRAF V600E CRC panel. The method, then:
as §1, §2

The subject of assay [3] is BRAF V600E human melanoma cell lines. Kind of assay: 3D proliferation assay (CellTiter-Glo) with synergy analysis, BRAF V600E melanoma panel. The method, then: as §1, §2

On to `CNS(=O)(=O)Nc1nccc(Cc2c(C)c3ccc(Cc4ncccn4)cc3oc2=O)c1F` [VS-6766], for which the “synergy with pan-RAF inhibitors in reducing cell viability” value in assay [1] is listed as “strong synergy; also recorded: synergistic”. Also, the “synergy of VS-6766+BRAFi compared with synergy of MEKi+BRAFi” value in assay [2] (BRAF V600E colorectal carcinoma cell lines, composite synergy score (FIG. 4)) is “better”; in assay [3] (BRAF V600E melanoma cell lines, composite synergy score (FIG. 1)), “better”. The “synergy of VS-6766+vemurafenib compared with synergy of cobimetinib+vemurafenib” value is “better” in assay [2] (BRAF V600E colorectal carcinoma cell lines, dose-response matrices, each agent starting at 5 μM, Bliss synergy shown (FIG. 5)) and “better” in assay [3] (BRAF V600E melanoma cell lines, dose-response matrices, each agent starting at 5 μM, Bliss synergy shown (FIG. 2)). Moreover, the “synergy of VS-6766+dabrafenib compared with synergy of trametinib+dabrafenib” value in assay [2] (BRAF V600E colorectal carcinoma cell lines, dose-response matrices, each agent starting at 5 μM, Bliss synergy shown (FIG. 6)) was “better”; in assay [3] (BRAF V600E melanoma cell lines, dose-response matrices, each agent starting at 5 μM, Bliss synergy shown (FIG. 3)) it was “better”. For the same compound, the “synergy with BRAF V600 inhibitors in reducing cell viability” value in assay [2] (VS-6766 + BRAF V600 inhibitor (e.g., vemurafenib, dabrafenib, encorafenib), 7 days, 3 BRAF V600E CRC cell lines, Bliss, Loewe, HSA, ZIP composite synergy score) is “synergistic”; in assay [3] (VS-6766 + BRAF V600 inhibitor (e.g., vemurafenib, dabrafenib, encorafenib), 7 days, 5 BRAF V600E melanoma cell lines, Bliss, Loewe, HSA, ZIP composite synergy score) it was “synergistic”.

These data come from US20250009746A1, “COMBINATION THERAPY FOR TREATING ABNORMAL CELL GROWTH” (Verastem, Inc., priority 2021, published 2025).
